According to patent publication US20200262813A1, “1,5,7-TRISUBSTITUTED ISOQUINOLINE DERIVATIVES, PREPARATION THEREOF, AND USE THEREOF IN MEDICINES” (SHANGHAI HAIYAN PHARMACEUTICAL TECHNOLOGY CO., LTD., priority 2016, published 2020):
Where two headings read alike, the source gives them in different places.

Biological target: Recombinant PRC2 (EZH2-Y641F) (Homo sapiens, UniProt Q15910, Y641F)
Experiment: In vitro methyltransferase activity test (LANCE Ultra);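 also: compounds tested as an 8-point threefold dilution series, fluorescence read after 1 h detection step at room temperature, IC50 derived from a four-parameter curve fit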
Conditions: LANCE Ultra detection, 3 hours reaction
[1] = EZH2 Y641F IC50, Recombinant PRC2 (EZH2-Y641F)

Chain of Recombinant PRC2 (EZH2-Y641F) (Q15910 whole entry Y641F): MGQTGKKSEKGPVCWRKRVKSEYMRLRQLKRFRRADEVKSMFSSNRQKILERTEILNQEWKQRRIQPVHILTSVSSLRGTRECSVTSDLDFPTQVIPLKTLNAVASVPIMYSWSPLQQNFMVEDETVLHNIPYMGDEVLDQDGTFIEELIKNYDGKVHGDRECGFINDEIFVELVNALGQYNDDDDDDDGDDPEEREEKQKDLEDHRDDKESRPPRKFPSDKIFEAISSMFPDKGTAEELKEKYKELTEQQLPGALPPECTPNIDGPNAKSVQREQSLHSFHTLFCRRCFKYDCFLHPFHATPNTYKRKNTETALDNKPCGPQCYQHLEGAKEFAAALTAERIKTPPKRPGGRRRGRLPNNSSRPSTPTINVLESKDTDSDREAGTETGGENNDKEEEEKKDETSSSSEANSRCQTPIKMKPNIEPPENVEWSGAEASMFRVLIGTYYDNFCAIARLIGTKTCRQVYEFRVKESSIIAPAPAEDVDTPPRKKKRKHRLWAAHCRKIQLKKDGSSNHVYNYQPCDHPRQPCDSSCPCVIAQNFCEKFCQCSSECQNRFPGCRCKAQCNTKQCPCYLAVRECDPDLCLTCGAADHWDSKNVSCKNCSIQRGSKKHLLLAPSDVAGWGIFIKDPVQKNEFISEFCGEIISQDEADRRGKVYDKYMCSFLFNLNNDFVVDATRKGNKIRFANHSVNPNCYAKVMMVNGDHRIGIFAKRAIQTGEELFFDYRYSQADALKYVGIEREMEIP
Chain of Recombinant PRC2 (EZH2-Y641F) (O75530 whole entry partner): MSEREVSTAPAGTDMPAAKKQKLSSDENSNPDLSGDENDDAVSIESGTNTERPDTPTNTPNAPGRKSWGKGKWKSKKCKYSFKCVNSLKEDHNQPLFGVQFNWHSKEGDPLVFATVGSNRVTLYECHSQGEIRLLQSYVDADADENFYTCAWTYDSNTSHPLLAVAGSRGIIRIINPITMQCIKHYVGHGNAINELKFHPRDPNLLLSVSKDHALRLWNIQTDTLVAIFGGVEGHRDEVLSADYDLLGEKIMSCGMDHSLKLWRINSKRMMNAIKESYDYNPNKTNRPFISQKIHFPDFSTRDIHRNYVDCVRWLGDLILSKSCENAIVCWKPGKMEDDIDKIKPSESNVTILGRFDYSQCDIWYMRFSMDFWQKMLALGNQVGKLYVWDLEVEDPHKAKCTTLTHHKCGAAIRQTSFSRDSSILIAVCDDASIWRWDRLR
Chain of Recombinant PRC2 (EZH2-Y641F) (Q15022 whole entry partner): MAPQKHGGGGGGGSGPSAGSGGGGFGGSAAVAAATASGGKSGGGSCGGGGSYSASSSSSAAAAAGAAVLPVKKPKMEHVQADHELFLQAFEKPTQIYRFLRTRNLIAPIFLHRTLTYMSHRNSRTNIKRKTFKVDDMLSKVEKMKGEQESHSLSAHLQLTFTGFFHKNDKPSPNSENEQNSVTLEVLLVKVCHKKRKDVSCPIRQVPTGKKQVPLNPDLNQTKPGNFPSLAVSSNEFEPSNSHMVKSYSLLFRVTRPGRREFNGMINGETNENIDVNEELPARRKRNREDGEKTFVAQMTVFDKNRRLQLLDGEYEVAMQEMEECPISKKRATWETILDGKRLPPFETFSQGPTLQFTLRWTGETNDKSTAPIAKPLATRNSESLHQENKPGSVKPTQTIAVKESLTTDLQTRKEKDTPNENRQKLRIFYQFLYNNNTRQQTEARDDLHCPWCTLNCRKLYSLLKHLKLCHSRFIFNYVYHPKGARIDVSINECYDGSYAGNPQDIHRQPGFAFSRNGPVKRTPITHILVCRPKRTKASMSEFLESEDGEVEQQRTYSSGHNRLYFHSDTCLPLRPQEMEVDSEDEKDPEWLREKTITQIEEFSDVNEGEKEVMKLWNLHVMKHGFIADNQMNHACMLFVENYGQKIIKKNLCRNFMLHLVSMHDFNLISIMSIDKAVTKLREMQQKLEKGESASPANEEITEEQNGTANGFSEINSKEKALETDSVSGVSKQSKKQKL
Chain of Recombinant PRC2 (EZH2-Y641F) (Q09028 whole entry partner): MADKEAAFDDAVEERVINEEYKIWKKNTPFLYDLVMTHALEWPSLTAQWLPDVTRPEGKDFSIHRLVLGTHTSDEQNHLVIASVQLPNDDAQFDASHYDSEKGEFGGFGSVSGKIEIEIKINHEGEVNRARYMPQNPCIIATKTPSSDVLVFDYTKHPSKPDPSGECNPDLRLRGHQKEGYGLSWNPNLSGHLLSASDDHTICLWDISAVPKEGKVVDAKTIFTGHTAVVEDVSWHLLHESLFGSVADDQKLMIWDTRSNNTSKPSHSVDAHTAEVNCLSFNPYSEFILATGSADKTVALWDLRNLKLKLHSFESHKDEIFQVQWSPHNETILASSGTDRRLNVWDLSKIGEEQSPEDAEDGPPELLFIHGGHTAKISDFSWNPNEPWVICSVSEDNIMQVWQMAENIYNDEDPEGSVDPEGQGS
Chain of Recombinant PRC2 (EZH2-Y641F) (Q6ZN18 whole entry partner): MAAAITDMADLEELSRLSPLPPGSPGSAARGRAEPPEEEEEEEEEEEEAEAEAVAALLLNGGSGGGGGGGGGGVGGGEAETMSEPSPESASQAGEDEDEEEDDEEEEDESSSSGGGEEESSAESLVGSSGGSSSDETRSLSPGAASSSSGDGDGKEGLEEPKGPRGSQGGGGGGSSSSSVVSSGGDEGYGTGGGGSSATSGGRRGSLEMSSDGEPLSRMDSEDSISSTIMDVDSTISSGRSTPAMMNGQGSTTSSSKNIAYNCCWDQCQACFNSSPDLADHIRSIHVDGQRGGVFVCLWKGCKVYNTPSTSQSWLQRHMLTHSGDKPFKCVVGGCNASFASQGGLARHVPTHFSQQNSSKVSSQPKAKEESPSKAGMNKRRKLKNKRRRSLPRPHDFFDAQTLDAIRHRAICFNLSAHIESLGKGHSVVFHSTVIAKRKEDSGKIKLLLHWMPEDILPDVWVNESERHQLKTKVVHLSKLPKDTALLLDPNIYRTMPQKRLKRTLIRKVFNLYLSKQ
Experimental: In Vitro Methyltransferase Activity Test
Recombinant PRC2 (EZH2-Y641F) was purchased from Active motif, S-adenosyl-methionine (SAM) and Poly-L-lysine (PLL) were purchased from Sigma-Aldrich, H3(1-50)K27mel polypeptide was purchased from Cisbio. LANCEUltra system (Perkinelmer) was used for detection. In the enzyme activity test, a compound to be tested was 1:3 diluted for 8 gradient points, added into a reaction plate, and then added 100 ng recombinant enzyme. And then a buffer [20 mM Tris pH8.5, 2 mM MgCl2, 0.01% Tween-20, 1 mM TCEP] containing 2.5 M SAM/250 nM H3(1-50)K27mel premixture was added to conduct an enzyme reaction at room tempreture. After reacted for 3 hours, a dection solution containing premixed PLL, detection antibody and Ulight was added, reacted for 1 h at RT, then fluorescence was read on Tecan infinite pro. IC50s were calculated by four-factor model fitting in a XLfit software.

Compound | IC50 [1] [nM] | IC50 (read-out: EZH2 Y641F IC50, Recombinant PRC2 (EZH2-Y641F)) [nM]
CCN(c1cc(-c2ccc(CN3CCOCC3)cc2)cc2c(NCc3c(C)cc(C)[nH]c3=O)nccc12)C1CCOCC1 [Compound Z-1] | 422 | 
CCN(c1cc(Br)cc2c(NCc3c(C)cc(C)[nH]c3=O)nccc12)C1CCOCC1 [Compound Z-3, 3-((7-bromo-5-(ethyl (tetrahydro-2H-pyran-4-yl)amino)isoquinolin-1-ylamino)methyl)-4,6-dimethyl-2(1H)-one] | 186 | 
CCN(c1cc(Cl)cc2c(NCc3c(C)cc(C)[nH]c3=O)nccc12)C1CCOCC1 [Compound Z-4, 3-((7-chloro-5-(ethyl (tetrahydro-2H-pyran-4-yl)amino)isoquinolin-1-ylamino)methyl)-4,6-dimethyl-2(1H)-one] | 295 | 
CCN(c1cc(C#N)cc2c(NCc3c(C)cc(C)[nH]c3=O)nccc12)C1CCOCC1 [Compound Z-6, 1-((4,6-dimethyl-2-oxo-1,2-dihydropyridin-3-yl)methylamino)-5-(ethyl (tetrahydro-2H-pyran-4-yl)amino)isoquinoline-7-carbonitrile] | 611 | 
CCN(c1cc(-c2cnn(C)c2)cc2c(NCc3c(C)cc(C)[nH]c3=O)nccc12)C1CCOCC1 [Compound Z-7, 3-((5-(ethyl (tetrahydro-2H-pyran-4-yl)amino)-7-(1-methyl-1H-pyrazol-4-yl)isoquinoline-1-ylamino)methyl)-4,6-dimethylpyridin-2(1H)-one] | 481 | 
CCN(c1cc(-c2ccc(CN3CCNCC3)cc2)cc2c(NCc3c(C)cc(C)[nH]c3=O)nccc12)C1CCOCC1 [Compound Z-8, 3-((5-(ethyl (tetrahydro-2H-pyran-4-yl)amino)-7-(4-(piperazin-1-ylmethyl)phenyl)isoquinoline-1-ylamino)methyl)-4,6-dimethyl-2(1H)-one] | 86 | 
CCN(c1cc(Cl)cc2c(NCc3c(C)cc(C)nc3O)nccc12)C1CC2CNCC2C1 (centres unmarked) [Compound Z-9, 3-((7-chloro-5-(ethyl (octahydrocyclopenta[c]pyrrol-5-yl)amino)isoquinolin-1-ylamino)methyl)-4,6-dimethylpyridine-2-ol] | 57 | 
CCN(c1cc(C(F)(F)F)cc2c(NCc3c(C)cc(C)[nH]c3=O)nccc12)C1CCNCC1 [Compound Z-13, 3-((5-(ethyl (piperidin-4-yl)amino)-7-(trifluoromethyl)isoquinolin-1-ylamino)methyl)-4,6-dimethylpyridine-2(1H)-one] | 92 | 
CCN(c1cc(-c2cn[nH]c2)cc2c(NCc3c(C)cc(C)[nH]c3=O)nccc12)C1CCOCC1 [Compound Z-14] | 426 | 
CCN(c1cc(Br)cc2c(NCc3c(C)cc(C)[nH]c3=O)nccc12)C1CCC(N(C)C)CC1 (centres unmarked) [Compound Z-15, 3-((7-bromo-5-((4-(dimethylamino)cyclohexyl) (ethyl)amino)isoquinolin-1-ylamino)methyl)-4,6-dimethyl-2(1H)-one] | 91 | 
CCN(c1cc(C(F)(F)F)cc2c(NCc3c(C)cc(C)[nH]c3=O)nccc12)C1CCOCC1 [Compound Z-16, 3-((5-(ethyl (tetrahydro-2H-pyran-4-yl)amino)-7-(trifluoromethyl)isoquinolin-1-ylamino)methyl)-4,6-dimethyl-2(1H)-one] | 428 | 
CCN(c1cc(C(N)=O)cc2c(NCc3c(C)cc(C)[nH]c3=O)nccc12)C1CCOCC1 [Compound Z-18] | 284 | 
CCN(c1cc(C(N)=O)cc2c(NCc3c(C)cc(C)[nH]c3=O)nccc12)C1CCC(N(C)C)CC1 (centres unmarked) [Compound Z-21] |  | 205
CCN(c1cc(-c2ccc(CN3CCCCC3)cc2)cc2c(NCc3c(C)cc(C)[nH]c3=O)nccc12)C1CCOCC1 [Compound Z-23] | 212 | 
CCN(c1cc(-c2ccc(N3CCN(C)CC3)nc2)cc2c(NCc3c(C)cc(C)[nH]c3=O)nccc12)C1CCOCC1 [Compound Z-24] | 152 | 
CCN(CC)Cc1ccc(-c2cc(N(CC)C3CCOCC3)c3ccnc(NCc4c(C)cc(C)[nH]c4=O)c3c2)cc1 [Compound Z-27] | 96 | 
CCN(c1cc(-c2ccc(N3CCOCC3)nc2)cc2c(NCc3c(C)cc(C)[nH]c3=O)nccc12)C1CCOCC1 [Compound Z-28] | 341 | 
CCN(c1cc(-c2ccc(CN3CCN(C)CC3)cc2)cc2c(NCc3c(C)cc(C)[nH]c3=O)nccc12)C1CCOCC1 [Compound Z-29] | 157 | 
CCN(c1cc(-c2ccc(CN(C)C)cc2)cc2c(NCc3c(C)cc(C)[nH]c3=O)nccc12)C1CCOCC1 [Compound Z-30] | 298 | 
CCN(c1cc(-c2ccc(CN3CCC[C@H](O)C3)cc2)cc2c(NCc3c(C)cc(C)[nH]c3=O)nccc12)C1CCOCC1 [Compound Z-31] | 328 | 
CCN(c1cc(-c2ccc(NC3CCOCC3)cc2)cc2c(NCc3c(C)cc(C)[nH]c3=O)nccc12)C1CCOCC1 [Compound Z-32] | 488 | 
CCN(c1cc(-c2ccc(CN3CCOCC3)cc2)cc2c(NCc3c(C)cc(C)[nH]c3=O)nccc12)C1CCC(NC(C)=O)CC1 (centres unmarked) [Compound Z-33] | 145 | 
CCN(c1cc(-c2cnn(C)c2)cc2c(NCc3c(C)cc(C)[nH]c3=O)nccc12)[C@H]1CC[C@H](N(C)C)CC1 [Compound Z-38] | 138 | 
CCN(c1cc(-c2ccc(CN3CCOCC3)cc2)cc2c(NCc3c(C)cc(C)[nH]c3=O)nccc12)C1CCC(N(C)C)CC1 (centres unmarked) [Compound Z-41] | 38 | 
CCN(c1cc(-c2ccc(N3CCOCC3)nc2)cc2c(NCc3c(C)cc(C)[nH]c3=O)nccc12)C1CCC(NC(C)=O)CC1 (centres unmarked) [Compound Z-48] | 303 | 
CCN(c1cc(-c2ccc(N3CCN(C)CC3)nc2)cc2c(NCc3c(C)cc(C)[nH]c3=O)nccc12)C1CCN(C)CC1 [Compound Z-50] | 26 | 
CCN(c1cc(-c2ccc(N3CCN(C)CC3)nc2)cc2c(NCc3c(C)cc(C)[nH]c3=O)nccc12)C1CCNCC1 [Compound Z-56] | 7 | 

Compound | IC50 [1] [nM] | IC50 (read-out: EZH2 Y641F IC50, Recombinant PRC2 (EZH2-Y641F)) [nM]
CCN(c1cc(-c2ccc(N3CCN(C)CC3)nc2)cc2c(NCc3c(C)cc(C)[nH]c3=O)nccc12)C1CCN(C(C)=O)CC1 [Compound Z-57] | 86 | 
CCN(c1cc(-c2ccc(N3CCOCC3)nc2)cc2c(NCc3c(C)cc(C)[nH]c3=O)nccc12)C1CCN(C(C)=O)CC1 [Compound Z-59] | 277 | 
CCN(c1cc(-c2ccc(CN3CCOCC3)cc2)cc2c(NCc3c(C)cc(C)[nH]c3=O)nccc12)C1CCN(C(C)=O)CC1 [Compound Z-60] | 321 | 
CCN(c1cc(C2=CCN(C)CC2)cc2c(NCc3c(C)cc(C)[nH]c3=O)nccc12)C1CCC(N(C)C)CC1 (centres unmarked) [Compound Z-61] | 12 | 
CCN(c1cc(-c2cnc(N3CCOCC3)nc2)cc2c(NCc3c(C)cc(C)[nH]c3=O)nccc12)C1CCN(C(C)C)CC1 [Compound Z-62] | 80 | 
CCN(c1cc(-c2cnc(N3CCN(C)CC3)nc2)cc2c(NCc3c(C)cc(C)[nH]c3=O)nccc12)C1CCN(C(C)C)CC1 [Compound Z-67] | 70 | 
CCN(c1cc(-c2cccnc2)cc2c(NCc3c(C)cc(C)[nH]c3=O)nccc12)C1CCN(C(C)C)CC1 [Compound Z-68] | 150 | 
CCN(c1cc(-c2ccc(CN3CCOCC3)nc2)cc2c(NCc3c(C)cc(C)[nH]c3=O)nccc12)C1CCN(C(C)C)CC1 [Compound Z-69] | 100 | 
CCN(c1cc(-c2ccccc2)cc2c(NCc3c(C)cc(C)[nH]c3=O)nccc12)C1CCC(N(C)C)CC1 (centres unmarked) [Compound Z-75] | 128 | 
CCN(c1cc(-c2ccc(N3CCN(C)CC3)nc2)cc2c(NCc3c(C)cc(C)[nH]c3=O)nccc12)C1CCN(CCF)CC1 [Compound Z-76] | 60 | 
CCN(c1cc(-c2cncc(C(F)(F)F)c2)cc2c(NCc3c(C)cc(C)[nH]c3=O)nccc12)[C@H]1CC[C@H](N(C)C)CC1 [Compound Z-77] | 177 | 
CCN(c1cc(-c2ccc(Oc3cccnc3)cc2)cc2c(NCc3c(C)cc(C)[nH]c3=O)nccc12)C1CCC(N(C)C)CC1 (centres unmarked) [Compound Z-78] | 198 | 
CCN(c1cc(-c2cnn(C3CCN(C)CC3)c2)cc2c(NCc3c(C)cc(C)[nH]c3=O)nccc12)C1CCC(N(C)C)CC1 (centres unmarked) [Compound Z-79] | 45 | 
CCN(c1cc(-c2ccc(N3CCN(C)CC3)c(F)c2)cc2c(NCc3c(C)cc(C)[nH]c3=O)nccc12)C1CCC(N(C)C)CC1 (centres unmarked) [Compound Z-80] | 26 | 
CCN(c1cc(-c2ccc(N3CCN(C)CC3)nc2)cc2c(NCc3c(C)cc(C)[nH]c3=O)nccc12)C1CCN(CCOC)CC1 [Compound Z-81] | 53 | 
CCN(c1cc(-c2ccc(Oc3ccncc3)cc2)cc2c(NCc3c(C)cc(C)[nH]c3=O)nccc12)C1CCC(N(C)C)CC1 (centres unmarked) [Compound Z-83] | 244 | 
CCN(c1cc(-c2ccc(CN3CCN(C)CC3)nc2)cc2c(NCc3c(C)cc(C)[nH]c3=O)nccc12)C1CCN(C2CC2)CC1 [Compound Z-84] | 83 | 
CCN(c1cc(-c2ccc(N3CCOCC3)nc2)cc2c(NCc3c(C)cc(C)[nH]c3=O)nccc12)C1CCN(C2CC2)CC1 [Compound Z-87] | 474 | 
CCN(c1cc(-c2ccc(CN3CCOCC3)cc2)cc2c(NCc3c(C)cc(C)[nH]c3=O)nccc12)C1CCC(O)CC1 (centres unmarked) [Compound Z-88] | 164 | 
C=C(C)c1cc(N(CC)C2CCC(N(C)C)CC2)c2ccnc(NCc3c(C)cc(C)[nH]c3=O)c2c1 (centres unmarked) [Compound Z-109] | 182 | 
CCN(c1cc(-c2ccc(C(=O)Nc3ccccn3)cc2)cc2c(NCc3c(C)cc(C)[nH]c3=O)nccc12)C1CCC(N(C)C)CC1 (centres unmarked) [Compound Z-110] | 67 | 
CCN(c1cc(-c2nccn2C)cc2c(NCc3c(C)cc(C)[nH]c3=O)nccc12)C1CCOCC1 [Compound Z-117] | 348 | 
CCN(c1cc(-c2ccc(C(=O)N3CCOCC3)nc2)cc2c(NCc3c(C)cc(C)[nH]c3=O)nccc12)C1CCN(C(C)C)CC1 [Compound Z-123] | 75 | 
CCN(c1cc(-c2ccc(C(=O)N3CCN(C)CC3)nc2)cc2c(NCc3c(C)cc(C)[nH]c3=O)nccc12)C1CCN(C(C)C)CC1 [Compound Z-124] | 51 | 
CCN(c1cc(-c2ccc(CN(C)C)nc2)cc2c(NCc3c(C)cc(C)[nH]c3=O)nccc12)C1CCC(N(C)C)CC1 (centres unmarked) [Compound Z-128] | 225 | 
CCN(c1cc(C(F)(F)F)cc2c(NCc3c(C)cc(C)[nH]c3=O)nccc12)C1CCC(N(C)C)CC1 (centres unmarked) [Compound Z-134] | 117 | 
